Results published in patent US8946409B2, “Polycyclic β lactam derivatives for the treatment of cancer” (Board of Regents, The University of Texas System, priority 2011, dated 2015).
Where two headings read alike, the source gives them in different places.

Experiments:
[1] = tested on: BRO; experiment: MTT assay, BRO cells; format: cell-based, human; settings: melanoma, 72 hours, Table 1, read-out: IC50 in Cancer Cells Using the MTT Assay
Protocol: (§1) 8×10^3 cells/well were plated in a […]. Stock solutions of the agents were made in DMSO. Dilution of the compounds were in media with 10% FBS (fetal bovine serum). The cells were incubated in the drug for 72 hours and cell viability was determined by the MTT assay. IC50 was then calculated.

[2] = tested on: MDA-231; experiment: MTT assay, MDA-231 cells; format: cell-based, human; settings: MDA-231, breast cancer, 72 hours, Table 1, read-out: IC50 in Cancer Cells Using the MTT Assay
Protocol: as §1

[3] = tested on: HT-29; experiment: MTT assay, HT-29 cells; format: cell-based, human; settings: HT-29, colon carcinoma, 72 hours, Table 1, read-out: IC50 in Cancer Cells Using the MTT Assay
Protocol: as §1

[4] = tested on: PANC-1; experiment: MTT assay, PANC-1 cells; format: cell-based, human
Protocol: as §1

[5] = tested on: A-549; experiment: MTT assay, A-549 cells; format: cell-based, human; settings: A-549, Non-Small Cell Carcinoma of the Lung, 72 hours, Table 1, read-out: IC50 in Cancer Cells Using the MTT Assay
Protocol: as §1

[6] = tested on: PC-3; experiment: MTT assay, PC-3 cells; format: cell-based, human; settings: PC-3, carcinoma of the prostate, 72 hours, Table 1, read-out: IC50 in Cancer Cells Using the MTT Assay
Protocol: as §1

[7] = tested on: Miapaca-2; experiment: MTT assay, Miapaca-2 cells; format: cell-based, human; settings: for IC50: Homo sapiens, MIA PaCa-2, Miapaca-2, Table 2, read-out: IC50 against Human Pancreatic Cancer Lines Using the MTT Assay
Protocol: as §1

[8] = tested on: SW-1990; experiment: MTT assay, SW-1990 cells; format: cell-based; settings: Homo sapiens, SW1990, Table 2, read-out: IC50 against Human Pancreatic Cancer Lines Using the MTT Assay
Protocol: as §1

[9] = tested on: ASCP-1; experiment: MTT assay, ASCP-1 cells; format: cell-based; settings: Homo sapiens, Table 2, read-out: IC50 against Human Pancreatic Cancer Lines Using the MTT Assay
Protocol: as §1

[10] = tested on: Pan02.03; experiment: MTT assay, Pan02.03 cells; format: cell-based; settings: Homo sapiens, Table 2, read-out: IC50 against Human Pancreatic Cancer Lines Using the MTT Assay
Protocol: as §1

[11] = tested on: BXPC-3; experiment: MTT assay, BXPC-3 cells; format: cell-based; settings: Homo sapiens, Table 2, read-out: IC50 against Human Pancreatic Cancer Lines Using the MTT Assay
Protocol: as §1

[12] = tested on: MPanc96 cells; experiment: In vivo anti-tumorigenic activity, luciferase-labeled MPanc96 cells injected into mouse pancreas; parameters: species or system athymic nude mice
Protocol: (§2) The anti-tumorigenic activity of TX-262 was assessed in 4 week old male athymic nude mice by using a luciferase gene, stably-expressing, highly aggressive line of human pancreatic cells, MPanc96. 2×10^5/50 ul luciferase-labeled MPanc96 cells were injected directly into the mouse pancreas. […] Bioluminescent imagining was utilized to estimate tumor volume and location and mice were then divided into two groups such that the mean tumor size was equal between the groups. For the next five weeks mice in the control group were treated with DMSO only; while Group II mice were treated Monday through Friday as follows: 100 mg/K bw i.p. at zero time [AM] and a booster dose of 25 mg/K bw i.p. 90 minutes later. Each week body weight and mortality were recorded and tumor growth was monitored by bioluminescence imaging.
Bioluminescence imaging utilized a cryogenically cooled image system coupled to a data acquisition computer running LivingImage Software [Xenogen Corp., Alameda Calif.]. Prior to imaging, the mice were anesthetized in an acrylic chamber using 1.5% isofluoroane/air mixture and injected i.p. with 40 mg/ml of luciferin potassium salt in PBS at a dose of 150 mg/K bw.
A digital grayscale animal image was acquired followed by acquisition and overlay of a pseudo color image representing the spacial distribution of detected photons emerging from active luciferase within the mouse. […]

[13] = tested on: CoLo35FG; experiment: MTT assay, CoLo35FG cells; format: cell-based; settings: Homo sapiens, Table 2, read-out: IC50 against Human Pancreatic Cancer Lines Using the MTT Assay
Protocol: as §1

[14] = Body weight of tumor-bearing mice during treatment; format: in vivo, athymic nude mice; settings: determined weekly through the treatment regimen
Protocol: as §2

[15] = PANC-1, pancreatic cancer, 72 hours, Table 1, read-out: IC50 in Cancer Cells Using the MTT Assay
[16] = Homo sapiens, PANC-1, PANC-1, Table 2 (average of runs), read-out: IC50 against Human Pancreatic Cancer Lines Using the MTT Assay

SMILES | IC50 [1] [µM] | IC50 [2] [µM] | IC50 [3] [µM] | IC50 [4, 15] [µM] | IC50 [5] [µM] | IC50 [6] [µM] | IC50 [7] [µM] | IC50 [8] [µM] | IC50 [9] [µM] | IC50 [4, 16] [µM] | IC50 [10] [µM] | IC50 [11] [µM] | also measured
N.N.[Cl][Pt][Cl] [Cisplatin, cisplatin] | 5.7 | 10.1 | 17 | > 100 | > 100 | 2.1 | – | – | – | – | – | – | –
CN1CCN(C(=O)CCC(=O)Nc2cc3c4ccccc4ccc3c3ccccc23)CC1 [Compound 1b, 1-N-6′-Chrysenyl-4′-4-N-methylpiperazine-butane-1,4-dicarboxyamide] | 33.6 | 12.2 | 16.7 | > 100 | > 100 | 27.3 | – | – | – | – | – | – | –
Nc1ccn([C@@H]2O[C@H](CO)[C@@H](O)C2(F)F)c(=O)n1 [GEM, gemcitabine] | – | – | – | – | – | – | 25.7 | 0.4 | 0.1 | > 300 | 0.15 | 0.3 | IC50 against Human Pancreatic Cancer Lines Using the MTT Assay ([4]; PANC-1, Table 2 (average of runs)): inactive
CS(=O)(=O)O[C@H]1C(=O)N(c2cc3c4ccccc4ccc3c3ccccc23)C1c1ccccn1 (stereo partly drawn) [Compound 12, (3R)-1-(chrysen-6-yl)-2-oxo-4-(pyridin-2-yl)azetidin-3-yl methanesulfonate] | – | – | – | – | – | – | 12 | 1.3 | 1.5 | < 1 | 0.39 | 0.43 | IC50 ([1]; Homo sapiens): 0.64 µM; Effective concentration relative to the concentration required by GEM ([7]; GEM-resistant line Miapaca-2): approximately one-half; IC50 ([2]; Homo sapiens, MDA-MB-231): 0.43 µM; IC50 ([3]; Homo sapiens): 0.36 µM; Viable tumor mass relative to that in control mice ([12]; at 5 weeks, 100 mg/K bw i.p. plus 25 mg/K bw i.p. 90 minutes later, Monday through Friday, bioluminescence imaging): approximately 33%; Surviving (viable) mice ([12]; at 6 weeks, control mice 20%): 80%; IC50 ([4]; Homo sapiens, PANC-1, 72 h, PANC-1, pancreatic cancer, 72 hours, Table 1, read-out: IC50 in Cancer Cells Using the MTT Assay): 0.43 µM; IC50 ([4]; PANC-1, Table 2 (average of runs), read-out: IC50 against Human Pancreatic Cancer Lines Using the MTT Assay): 0.75 µM; IC50 ([5]; Homo sapiens, A549): 0.96 µM; IC50 [13]: 2.7 µM; Weights of mice, treated versus control [14]: No significant differences; IC50 ([6]; Homo sapiens): 0.51 µM
